Results reported in patent US5383848A, “Iontophoretic administration of drugs” (Gensia, Inc., priority 1991, dated 1995).
Where “and” joins values, the source holds several entries; their conditions need not be identical. Equal values may be shown once.

How the values were obtained:
[1] = Preclinical and clinical studies using intravenous (IV) infusion of an ESA drug; settings: in vivo, read-out: Pharmacokinetic and pharmacodynamic half-life
Protocol: Referring to FIG. 3, dog "PO", 0.08 microgram of GP 2-121-3 per kilogram of dog body weight per minute was administered over a 7 minute period. Referring to FIG. 4, dog "BO", 0.10 microgram of GP 2-121-3per kilogram per minute was administered over a 10 minute period.

[2] = test system: elevated heart rate; test: In vivo dog experiments: heart rate offset after iontophoretic ESA drug with pretreatment (Example A); parameters: species or system labrador dogs; settings: for Offset Slope Component (0-5) min: 0-5 min after heart rate begins to decline; for Offset Slope Component (5-10) min: 5-10 min after decline begins; for Offset Slope Component (10-30) min: 10-30 min after decline begins; for Change in Heart Rate (peak minus baseline) / Peak Heart Rate: Table II; for Total time (startup) thru offset plateau: in words: Table IV; for Onset Slope: baseline at onset time to peak heart rate; for Decline in heart rate after ESA drug without pretreatment: control runs, hydrochloride; for Offset time: drug delivery stopped until within 20 bpm of baseline; for Offset Slope: drug shut-off to 20 bpm above baseline; for Delay: drug shut-off to start of heart rate decline; for Onset time: start of delivery to start of increase in heart rate; for Time Start Decline: time when elevated heart rate began to decline
[3] = Protein binding of arbutamine to albumin in IPPSF perfusate; assay type: in vitro ADME; settings: bovine, IPPSF perfusate media
[4] = test system: elevated heart rate; test: Additional in vivo dog experiments: dermal clearance enhancer pretreatment then arbutamine TDI (Example C); parameters: species or system labrador dogs; settings: for CHANGE IN HEART RATE / DELAY TIME / TIME TO REACH 10% DECLINE IN HEART RATE / TIME TO REACH 20% DECLINE IN HEART RATE / TIME TO REACH 30% DECLINE IN HEART RATE / TIME TO REACH 40% DECLINE IN HEART RATE / TIME TO REACH 50% DECLINE IN HEART RATE / HALF-LIFE: single dog run, hydrochloride; for HALF-LIFE: heart rate decline
Protocol: Additional experiments were performed to study the effect of certain compositions on the offset time and dermal clearance in dogs.
In these experiments, the formulation to be tested was applied either topically or by transdermal iontophoresis (TDI) as described below.
Six labrador dogs (20 to 30 kg) were trained to lie quietly on a table. Before each experiment, three ECG electrodes (one lead) were applied on shaved areas of the back (near the front legs) to obtain the heart rate. The outer hind leg area (either right or left) was shaved prior to each experiment, with care taken not to cut or visibly damage the skin. The area was cleaned with soap and water and the skin was then […] using an alcohol swab followed by skin preparation with 3M One-Step-Prep™ tape.
Each vasodilator that was delivered by TDI used a 1.8 cm^2 electrode (Graphic Controls, Buffalo, N.Y.) containing the vasodilator in a gel at the concentrations listed in experimental methods section. In all experiments, an indifferent electrode containing a phosphate-buffered-saline gel was applied to the skin in conjunction with the electrode containing the vasodilator. Each vasodilator tested was applied for 10 minutes using a current of 0.6 mA/cm^2. During this time the heart rate was continuously recorded (at 5 second intervals) with the ESA Research System. The delivery electrodes were then removed, and any excess gel adhering to the skin was gently removed using a tissue.
Each topically applied vasodilator was applied to the skin in a volume of approximately 0.25 ml. The agent was allowed to absorb into the skin, during which time the heart rate was continuously recorded for 10 minutes using the ESA Research System.
To test if heat alone would produce sufficient vasodilation, a 60° C. hot pack was applied to the skin 10 minutes prior to drug delivery, during which time the heat rate was continuously recorded by the ESA System. Once drug delivery electrodes were applied, the heat pack was reheated and placed on top of them for the duration of the study.
The purpose of this treatment was to produce an elevated heart rate response of at least 40 beats-per-minute above baseline lasting for at least 30 minutes.
^1/ The dose (ITCA) was calculated by multiplying the applied current density (mA/cm^2) by the duration of delivery (minutes) and the drug concentration (%) and the area of the electrode (cm^2). […] The units of ITCA are mA.minutes.
The important variables for this analysis are:
1) delay between time when drug administration was stopped and start of decline in heart rate;
2) the time (minutes) to reach successive percent levels (i.e. 10, 20, 30, 40, and 50% decline) from the point of maximum change in heart rate^2.
3) the half-life (minutes) of the heart rate decline obtained from an exponential fit of the offset slope.
A combination of over-the-counter (OTC) and proprietary formulations were selected for comparison. […] Two dogs received each treatment at least one time.
The six dogs are identified in the table as BA, BB, BO, MI, PO and SA, followed by the experimental identification number. These dogs received control (no pretreatment) and five DCE pretreatment regimens.

Cl.Oc1ccc(CCCCNCC(O)c2ccc(O)c(O)c2)cc1 (stereo not drawn) [Arbutamine, 1-(3,4-dihydroxy-phenyl)-2-(4-(4-hydroxyphenyl)butylamino)ethanol hydrochloride]
HALF-LIFE [1]: ~7 min
Offset Slope Component (0-5) min ([2]; listed as 1, hydrochloride): -0.40 beats per minute per minute
Offset Slope Component (0-5) min ([2]; listed as 2, hydrochloride): -3.70 beats per minute per minute
Offset Slope Component (5-10) min ([2]; listed as 1, hydrochloride): -0.80 beats per minute per minute
Offset Slope Component (5-10) min ([2]; listed as 2, hydrochloride): 1.70 beats per minute per minute
Offset Slope Component (10-30) min ([2]; listed as 1, hydrochloride): -0.02 beats per minute per minute
Offset Slope Component (10-30) min ([2]; listed as 2, hydrochloride): -0.50 beats per minute per minute
Change in Heart Rate (peak minus baseline) ([2]; listed as 1, hydrochloride): 56 bpm
Peak Heart Rate ([2]; listed as 1, hydrochloride): 123 bpm
Change in Heart Rate (peak minus baseline) ([2]; listed as 2, hydrochloride): 87 bpm
Peak Heart Rate ([2]; listed as 2, hydrochloride): 160 bpm
Total time (startup) thru offset plateau: in words ([2]; listed as 1, hydrochloride): Never reached to w/in 20 bpm of baseline
Total time (startup) thru offset plateau: in words ([2]; listed as 2, hydrochloride): Never reached to w/in 20 bpm pf baseline
Onset Slope ([2]; listed as 1, hydrochloride): 6.80 beats per minute per minute
Onset Slope ([2]; listed as 2, hydrochloride): 17.60 beats per minute per minute
Decline in heart rate after ESA drug without pretreatment [2]: essentially no reduction in heart rate
Decline in heart rate after ESA drug without pretreatment ([2]; listed as ESA™ drug): no decline in heart rate during the first hour
Offset time ([2]; listed as 1, hydrochloride): 29.00 min
Offset time ([2]; listed as 2, hydrochloride): 39.00 min
Offset Slope ([2]; listed as 1, hydrochloride): -0.30 beats per minute per minute
Offset Slope ([2]; listed as 2, hydrochloride): -0.25 beats per minute per minute
Delay ([2]; listed as 1, hydrochloride): 1.50 min
Delay ([2]; listed as 2, hydrochloride): 7.00 min
Onset time ([2]; listed as 1, hydrochloride): 9.00 min
Onset time ([2]; listed as 2, hydrochloride): 5.00 min
Time Start Decline ([2]; listed as 1, hydrochloride): 14.00 min
Time Start Decline ([2]; listed as 2, hydrochloride): 12.50 min
fraction unbound [3]: 0.36
experimental half-life [4]: 31 min
heart rate following TDI arbutamine without pretreatment ([4]; FIGS. 3 and 4): prolonged elevation of heart rate
CHANGE IN HEART RATE, Mean ([4]; Table VII, mean of runs): 74.68 BPM
DELAY TIME, Mean ([4]; Table VII, mean of runs): 7.10 min
HALF-LIFE, Mean ([4]; Table VII, mean of runs): 30.91 min
TIME TO REACH 10% DECLINE IN HEART RATE, Mean ([4]; Table VII, mean of runs): 10.19 min
TIME TO REACH 20% DECLINE IN HEART RATE, Mean ([4]; Table VII, mean of runs): 15.98 min
TIME TO REACH 30% DECLINE IN HEART RATE, Mean ([4]; Table VII, mean of runs): 21.96 min
TIME TO REACH 40% DECLINE IN HEART RATE, Mean ([4]; Table VII, mean of runs): 27.72 min
TIME TO REACH 50% DECLINE IN HEART RATE, Mean ([4]; Table VII, mean of runs): 31.37 min
CHANGE IN HEART RATE ([4]; Table VII, listed as Control): 52.17 BPM and 123.25 BPM and 60.00 BPM and 88.00 BPM and 87.00 BPM and 63.00 BPM and 78.80 BPM and 54.05 BPM and 88.07 BPM and 94.17 BPM and 54.44 BPM and 58.44 BPM and 77.47 BPM and 82.88 BPM and 77.08 BPM
DELAY TIME ([4]; Table VII, listed as Control): 1.57 min and 1.00 min and 60.00 min and 5.50 min and 7.00 min and 5.10 min and 3.66 min and 2.28 min and 0.00 min and 1.67 min and 3.10 min and 9.20 min and 8.54 min and 1.99 min and 1.44 min
TIME TO REACH 10% DECLINE IN HEART RATE ([4]; Table VII, listed as Control): 3.20 min and 6.24 min and 60.00 min and 7.07 min and 9.35 min and 8.80 min and 5.53 min and 4.53 min and 2.28 min and 9.66 min and 7.04 min and 10.79 min and 9.50 min and 4.00 min and 4.04 min
TIME TO REACH 20% DECLINE IN HEART RATE ([4]; Table VII, listed as Control): 4.83 min and 9.16 min and 60.00 min and 98.65 min and 11.70 min and 7.41 min and 6.79 min and 4.55 min and 19.65 min and 16.54 min and 23.38 min and 10.47 min and 5.04 min and 6.82 min
TIME TO REACH 30% DECLINE IN HEART RATE ([4]; Table VII, listed as Control): 6.46 min and 12.67 min and 60.00 min and 10.21 min and 14.16 min and 9.91 min and 9.23 min and 10.58 min and 29.56 min and 23.02 min and 13.98 min and 11.43 min and 8.54 min and 11.63 min
TIME TO REACH 40% DECLINE IN HEART RATE ([4]; Table VII, listed as Control): 19.07 min and 17.19 min and 60.00 min and 16.92 min and 18.71 min and 13.84 min and 11.73 min and 22.82 min and 29.50 min and 16.23 min and 12.39 min and 11.49 min and 13.58 min
TIME TO REACH 50% DECLINE IN HEART RATE ([4]; Table VII, listed as Control): 22.93 min and 21.70 min and 60.00 min and 24.25 min and 24.54 min and 25.97 min and 16.68 min and 30.00 min and 33.10 min and 18.58 min and 113.35 min and 15.32 min and 15.52 min
CHANGE IN HEART RATE ([4]; Table VII, listed as control): 56.00 BPM
DELAY TIME ([4]; Table VII, listed as control): 1.50 min
TIME TO REACH 10% DECLINE IN HEART RATE ([4]; Table VII, listed as control): 11.00 min
TIME TO REACH 20% DECLINE IN HEART RATE ([4]; Table VII, listed as control): 60.00 min
TIME TO REACH 30% DECLINE IN HEART RATE ([4]; Table VII, listed as control): 60.00 min
TIME TO REACH 40% DECLINE IN HEART RATE ([4]; Table VII, listed as control): 60.00 min
TIME TO REACH 50% DECLINE IN HEART RATE ([4]; Table VII, listed as control): 60.00 min
HALF-LIFE ([4]; Table VII, listed as Control): 12.53 min and 60.00 min and 20.60 min and 13.72 min and 25.09 min and 52.48 min and 2.42 min and 12.81 min and 9.60 min
HALF-LIFE ([4]; Table VII, listed as control): 60.00 min
